According to patent publication US20050008687A1, “Metal-porphyrin-complex-embedded liposomes, production process thereof, and medicines making use of the same” (Makoto Yuasa, priority 2003, published 2005):
Like-named read-outs stand apart in the source and are kept apart here.

What was measured:
[1] = system: mouse lung cancer cells [Lewis Lung Carcinoma (LLC)]; assay: Anticancer characteristic test: cytotoxicity test (apoptosis test) by the Alamar Blue technique; assay type: cell-based; conditions: FIG. 3
Procedure: Anticancer characteristics of a Pr-embedded liposome according to the present invention were examined by a cytotoxicity test (apoptosis test) making use of the Alamar Blue technique.
Employed were the FeT2 MPyP+4SAS-embedded DMPC liposome system (Invention Product 4, FeT2 MPyP concentrations: 0, 12.5, 25, 50, 100 μM) as a test sample and its corresponding cationic metalloporphyrin complex (FeT2 MPyP) and ion complex system (FeT2 MPyP+4SAS) as reference samples. As cells, on the other hand, mouse lung cancer cells [Lewis Lung Carcinoma (LLC), Riken Gene Bank] were used.
In the test, the mouse lung cancer cells were cultured in DMEM medium with 10% FBS added therein. Subsequent to determination of the cell count and adjustment of the cell concentration, the resulting cell suspension was added to the individual wells of a 96-well plate (100 μL/well, cell count: 1×10^4 cells/well), followed by incubation for 24 hours in a carbon dioxide incubator (CO2:5%). After the medium was removed from the plate, sample solutions of the respective concentrations (100 μL/well, sample concentrations: 0 to 100 μM), said sample solutions having had been prepared in advance, were added, followed by further incubation for 24 hours in the CO2 incubator.
An Alamar Blue solution, which had been sterilized by filtration, was added at 10 μL/well, followed by incubation for 5 hours. Subsequently, absorbance measurements (measurement wavelength: 570 nm, and reference wavelength: 600 nm) were conducted by using a microplate reader.
Anticancer characteristics of Pr-embedded liposomes according to the present invention were examined by a cytotoxicity test (apoptosis test) making use of the Alamar Blue technique as in Example 15.
As test samples, various Pr-embedded liposomes were used (metalloporphyrin complex concentrations: 0, 12.5, 25, 50, 100 μM). As reference samples, on the other hand, the components of the Pr-embedded liposomes, that is, the metalloporphyrin complexes (concentrations: 0, 12.5, 25, 50, 100 μM) and liposomes (concentrations: 2500, 5000, 10000, 20000 μM) were employed (the concentrations of both of the components were set corresponding to the concentrations of the Pr-embedded liposomes).
Provided as comparative samples were cisplatin (CDDP; concentrations: 0, 10, 20, 40, 80 μM) and mitomycin C (MMC; concentrations: 0, 7.5, 15, 30, 60 μM), which are anticancer agents employed at present. A test was conducted as in Example 15, and the following results were obtained.
Anticancer characteristics of pH-sensitive, Pr-embedded liposomes were examined by a cytotoxicity test (apoptosis test) making use of the Alamar Blue technique as in Example 15. […]

[2] = SOD activity (O2-. scavenging) by the stopped-flow method; assay type: biochemical; conditions: Table 8
Procedure: The SOD activity (in other words, O2^−. scavenging activity) of each Pr-embedded liposome was evaluated by the stopped-flow method proposed by Riley et al. [D. P. Riley, W. L. Rivers, and R. H. Weiss, Anal. Biochem., 196, 344 (1991)]. Specifically, the evaluation was conducted as will be described hereinafter. At 36° C., a solution of potassium superoxide as an O2^−. production source in dimethylsulfoxide and one of 60 mM HEPES/HEPESNa buffered solutions (pH 8.1), which contained one of the Pr-embedded liposomes at various concentrations, were promptly mixed, and the decay in absorbance at 245 nm due to O2^−. (the decay curve of O2^−. scavenging reaction) was measured with time. From the decay curve, a “ln (absorbance)-versus-time” relationship was determined, and further, an apparent rate constant was calculated from the slope of the relationship. From the slope of the “concentration of metalloporphyrin complex-versus-apparent rate constant” relationship, the rate constant (Kcat) of the O2^−. scavenging reaction was finally determined. As a reference, ion complexes (MnT4 MPyP+1SAS and MnT4 MPyP+4SAS) were also evaluated likewise in SOD activity.
Various metalloporphyrin complexes, which represent Pr-embedded liposomes, were compared in SOD activity. […] Incidentally, the samples were prepared and measured as in Examples 19 and 20.

[3] = literature value reported by Ohse, Kawakami et al.; Table 7; cited from earlier work
[4] = SOD activity (O2-. scavenging) by the cytochrome c method; assay type: biochemical; conditions: Table 8
Procedure: The SOD activity (in other words, O2^−. scavenging activity) of each Pr-embedded liposome was evaluated by the cytochrome c method proposed by Mccord and Fridovich or Butler et al. [(1) J. M. Mccord and I. Fridovich, J. Biol. Chem., 244, 6049 (1969) and (2) J. Butler, W. H. Kopenol, E. Margoliash, J. Biol. Chem., 257, 10747 (1982)]. Specifically, the evaluation was conducted as will be described hereinafter. Solutions (Solutions A) of each Pr-embedded liposome were prepared at five or more concentration levels of from 0 to 1,000 μM in terms of the concentration of the metalloporphyrin. […] With the resultant mixture, a 7 μg/mL aqueous catalase solution (0.1 mL) and a 25 U/mL aqueous xanthine oxidase (XOD) solution (0.3 mL) were promptly mixed, and UV-vis was measured with time at 550 nm (absorption peak based on the formation of ferrocytochome c)(the final concentrations of the respective components in the test solution were as follows: the metal porphyrin complex, 0 to 100 SM; xanthine, 0.05 mM; XOD, 2.5U/mL; cytochrome c, 10 μM; catalase, 0.23 μg/mL). […] Finally, the concentration (IC50) of each metalloporphyrin complex at IC=50% was determined from the concentration of metalloporphyrin-versus-IC” relationship, and the IC50 was used as an index of the SOSD-activating effect of the metalloporphyrin complex (smaller IC50 indicates higher SOD activity). […]

[5] = literature value reported by Fridovich et al.; Table 6; cited from earlier work

For `[NH2][Pt]([NH2])([Cl])[Cl]` [CDDP, cisplatin, reference compound], the “viability of LLC versus added concentration” value [1] was “dropped as the added concentration increased”.

For `C[n+]1ccc(-c2c3nc(c(-c4cc[n+](C)cc4)c4ccc([n-]4)c(-c4cc[n+](C)cc4)c4nc(c(-c5cc[n+](C)cc5)c5ccc2[n-]5)C=C4)C=C3)cc1.[Mn+2]` [MnT4MPyP, manganese[5,10,15,20-tetrakis(4-methylpyridyl)porphyrin]], the Kcat [2] is given as 2.2e+07 M⁻¹ s⁻¹, the Kcat [3] is given as 2.2e+07 M⁻¹ s⁻¹ and the IC50 [4] is given as 740 nM. For the same compound, the IC50 [5] was 700 nM.

With `C[n+]1ccccc1-c1c2nc(c(-c3cccc[n+]3C)c3ccc([n-]3)c(-c3cccc[n+]3C)c3nc(c(-c4cccc[n+]4C)c4ccc1[n-]4)C=C3)C=C2.[Fe+2]` [FeT2 MPyP, iron[5,10,15,20-tetrakis(2-methylpyridyl)porphyrin]] the “viability of LLC versus added concentration” value [1] was “dropped as the added concentration increased” and the “viability of LLC compared with CDDP and MMC” value ([1]; FeT2 MPyP concentrations of 25 μM and higher) was “lower than those in the cases of CDDP and MMC”.

With `CO[C@@]12[C@H](COC(N)=O)C3=C(C(=O)C(C)=C(N)C3=O)N1C[C@@H]1N[C@@H]12` [MMC, mitomycin C, reference compound] the “viability of LLC versus added concentration” value [1] was “dropped as the added concentration increased”.
